Assay results as given in patent US20150191462A1, “PYRROLIDINE DERIVATIVES AND THEIR USE AS COMPLEMENT PATHWAY MODULATORS” (priority 2012, published 2015).

Target: Recombinant human factor D (Homo sapiens, UniProt P00746)
Assay: Human Complement Factor D Assay: Method 1
Assay type: biochemical
Settings: Factor D inhibition, 10 nM factor D, Z-Lys-thiobenzyl substrate, fluorescence readout
Method: Human Complement Factor D Assay: Method 1 Recombinant human factor D (expressed in E. coli and purified using standard methods) at 10 nM concentration is incubated with test compound at various concentrations for 1 hour at room temperature in 0.1 M Hepes buffer, pH 7.5, containing 1 mM MgCl2, 1 M NaCl and 0.05% CHAPS. […] The increase in fluorescence is recorded at excitation of 485 nm and emission at 535 nm in a microplate spectrofluorimeter. IC50 values are calculated from percentage of inhibition of complement factor D-activity as a function of test compound concentration.

Chain of Recombinant human factor D (P00746 26-253): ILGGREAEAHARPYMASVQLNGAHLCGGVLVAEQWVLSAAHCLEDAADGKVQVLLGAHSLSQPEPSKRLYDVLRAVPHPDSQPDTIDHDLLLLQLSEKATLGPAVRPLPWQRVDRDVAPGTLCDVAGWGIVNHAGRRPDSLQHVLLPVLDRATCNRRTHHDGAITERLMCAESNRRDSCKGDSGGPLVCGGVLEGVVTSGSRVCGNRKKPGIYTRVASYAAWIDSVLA

SMILES	IC50
NC(=O)c1nn(CC(=O)N2[C@@H]3C[C@@H]3C[C@H]2C(=O)Nc2cccc(I)n2)c2ccccc12 [Example 21, 1-{2-[(1R,3S,5R)-3-(6-Iodo-pyridin-2-ylcarbamoyl)-2-aza-bicyclo[3.1.0]hex-2-yl]-2-oxo-ethyl}-1H-indazole-3-carboxylic acid amide]	3 nM
NC(=O)c1nn(CC(=O)N2[C@@H]3C[C@@H]3C[C@H]2C(=O)Nc2cccc(Br)n2)c2nnccc12 [Example 3, 1-{2-[(1R,3S,5R)-3-(6-Bromo-pyridin-2-ylcarbamoyl)-2-aza-bicyclo[3.1.0]hex-2-yl]-2-oxo-ethyl}-1H-pyrazolo[3,4-c]pyridazine-3-carboxylic acid amide]	24 nM
Cc1ccc2c(C(N)=O)nn(CC(=O)N3[C@@H]4C[C@@H]4C[C@H]3C(=O)Nc3cccc(Br)n3)c2c1 [Example 8, 1-{2-[(1R,3S,5R)-3-(6-Bromo-pyridin-2-ylcarbamoyl)-2-aza-bicyclo[3.1.0]hex-2-yl]-2-oxo-ethyl}-6-methyl-1H-indazole-3-carboxylic acid amide]	5 nM
CCc1cc2c(C(N)=O)nn(CC(=O)N3[C@@H]4C[C@@H]4C[C@H]3C(=O)Nc3cccc(C(F)(F)F)n3)c2cn1 [Example 2, 5-Ethyl-1-{2-oxo-2-[(1R,3S,5R)-3-(6-trifluoromethyl-pyridin-2-ylcarbamoyl)-2-aza-bicyclo[3.1.0]hex-2-yl]-ethyl}-1H-pyrazolo[3,4-c]pyridine-3-carboxylic acid amide]	18 nM
C[C@@]1(F)C[C@@H](C(=O)Nc2cccc(Br)n2)N(C(=O)Cn2nc(C(N)=O)c3ccccc32)C1 [Example 19, 1-{2-[(2S,4R)-2-(6-Bromo-pyridin-2-ylcarbamoyl)-4-fluoro-4-methyl-pyrrolidin-1-yl]-2-oxo-ethyl}-1H-indazole-3-carboxylic acid amide]	11 nM
Cc1ncc(NC(=O)[C@@H]2C[C@H]3C[C@H]3N2C(=O)Cn2nc(C(N)=O)c3ccccc32)nc1Br [Example 7, 1-{2-[(1R,3S,5R)-3-(6-Bromo-5-methyl-pyrazin-2-ylcarbamoyl)-2-aza-bicyclo[3.1.0]hex-2-yl]-2-oxo-ethyl}-1H-indazole-3-carboxylic acid amide]	6 nM
CC(=O)c1nn(CC(=O)N2[C@@H]3C[C@@H]3C[C@H]2C(=O)Nc2cncc(C(F)(F)F)n2)c2ccccc12 [Example 16, (1R,3S,5R)-2-[2-(3-Acetyl-indazol-1-yl)-acetyl]-2-aza-bicyclo[3.1.0]hexane-3-carboxylic acid (6-trifluoromethyl-pyrazin-2-yl)-amide]	17 nM
NC(=O)c1nn(CC(=O)N2CC[C@H](F)[C@H]2C(=O)Nc2cccc(Br)n2)c2ccccc12 [Example 27, 1-(2-((2R,3S)-2-((6-bromopyridin-2-yl)carbamoyl)-3-fluoropyrrolidin-1-yl)-2-oxoethyl)-1H-indazole-3-carboxamide]	80 nM
NC(=O)c1nn(CC(=O)N2[C@@H]3C[C@@H]3C[C@H]2C(=O)Nc2cncc(Br)n2)c2ncccc12 [Example 1, 1-{2-[(1R,3S,5R)-3-(6-Bromo-pyrazin-2-ylcarbamoyl)-2-aza-bicyclo[3.1.0]hex-2-yl]-2-oxo-ethyl}-1H-pyrazolo[3,4-b]pyridine-3-carboxylic acid amide]	19 nM
CC(=O)c1nn(CC(=O)N2[C@@H]3C[C@@H]3C[C@H]2C(=O)Nc2cnc(C)c(Br)n2)c2cnccc12 [Example 12, (1R,3S,5R)-2-[2-(3-Acetyl-pyrazolo[3,4-c]pyridin-1-yl)-acetyl]-2-aza-bicyclo[3.1.0]hexane-3-carboxylic acid (6-bromo-5-methyl-pyrazin-2-yl)-amide]	16 nM
CNC(=O)c1nn(CC(=O)N2[C@@H]3C[C@@H]3C[C@H]2C(=O)Nc2cccc(Br)n2)c2ccccc12 [Example 26, 1-(2-((1R,3S,5R)-3-((6-bromopyridin-2-yl)carbamoyl)-2-azabicyclo[3.1.0]hexan-2-yl)-2-oxoethyl)-N-methyl-1H-indazole-3-carboxamide]	40 nM
NC(=O)c1nn(CC(=O)N2[C@@H]3C[C@@H]3C[C@H]2C(=O)Nc2cccc(Br)n2)c2cc(F)ccc12 [Example 11, 1-{2-[(1R,3S,5R)-3-(6-Bromo-pyridin-2-ylcarbamoyl)-2-aza-bicyclo[3.1.0]hex-2-yl]-2-oxo-ethyl}-6-fluoro-1H-indazole-3-carboxylic acid amide]	5 nM
Cc1ncc(NC(=O)[C@@H]2C[C@H]3C[C@H]3N2C(=O)Nc2cn(C(N)=O)c3ccccc23)nc1Br [Example 32, (1R,3S,5R)-2-Aza-bicyclo[3.1.0]hexane-2,3-dicarboxylic acid 3-[(6-bromo-5-methyl-pyrazin-2-yl)-amide] 2-[(1-carbamoyl-1H-indol-3-yl)-amide]]	5 nM
CC(=O)c1nn(CC(=O)N2C[C@H]3C[C@H]3[C@H]2C(=O)Nc2cccc(Br)n2)c2cnccc12 [Example 15, (1R,2S,5S)-3-[2-(3-Acetyl-pyrazolo[3,4-c]pyridin-1-yl)-acetyl]-3-aza-bicyclo[3.1.0]hexane-2-carboxylic acid (6-bromo-pyridin-2-yl)-amide]	14 nM
NC(=O)c1nn(CC(=O)N2CCS[C@H]2C(=O)Nc2cccc(Br)n2)c2ccccc12 [Example 25, (S)-N-(6-bromopyridin-2-yl)-3-(2-(3-carbamoyl-1H-indazol-1-yl)acetyl)thiazolidine-2-carboxamide]	10 nM
Cc1cc2c(C(N)=O)nn(CC(=O)N3[C@@H]4C[C@@H]4C[C@H]3C(=O)Nc3cncc(C(F)(F)F)n3)c2c(C)n1 [Example 30, 5,7-dimethyl-1-(2-oxo-2-((1R,3S,5R)-3-((6-(trifluoromethyl)pyrazin-2-yl)carbamoyl)-2-azabicyclo[3.1.0]hexan-2-yl)ethyl)-1H-pyrazolo[3,4-c]pyridine-3-carboxamide]	80 nM
